How the values were obtained:
C5a1 = biological target: T1, C5a1 (Homo sapiens, UniProt P21730); conditions: up to a concentration of 100 μM, reference 27; cited from earlier work
T1 sequence (P21730 1-350): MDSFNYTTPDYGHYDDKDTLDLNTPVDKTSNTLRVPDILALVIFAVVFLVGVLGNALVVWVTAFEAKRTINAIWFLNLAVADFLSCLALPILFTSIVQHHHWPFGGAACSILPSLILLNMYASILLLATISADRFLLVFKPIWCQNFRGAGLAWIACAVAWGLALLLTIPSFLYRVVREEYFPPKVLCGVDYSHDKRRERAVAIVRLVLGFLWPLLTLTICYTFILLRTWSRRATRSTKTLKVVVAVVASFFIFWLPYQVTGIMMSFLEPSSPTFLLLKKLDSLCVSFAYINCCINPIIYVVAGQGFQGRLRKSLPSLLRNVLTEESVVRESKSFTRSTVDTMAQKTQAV

[1] = system: ERK1/2 activation in HMDM; experiment: ERK1/2 phosphorylation assay (Alphascreen Surefire) in HMDM; format: cell-based, human; conditions: for inhibition of C5a-induced ERK1/2 activation in HMDM: 30 min pre-incubation, then C5a 5 nM for 10 min; for direct ERK1/2 activation in HMDM: peptide alone
Experimental: FIG. 5 is a graph showing that P32 and P59 inhibit C5a-induced ERK1/2 activation in HMDM. pERK quantified by Surefire ERK1/2 kit. Data is normalised to C5a 5 nM (100%) for each donor. Data are representative of at least three independent experiments HMDM donors performed in triplicate (n=3-5). Error bars represent SEM. **** P<0.0001 by one-way ANOVA followed by Dunnett's post hoc test.
ERK1/2 phosphorylation assays were performed using the Alphascreen Surefire ERK1/2 kit (Perkin Elmer) as per manufacturers' instructions. Briefly, HMDM were seeded at 50 000 cells/well in 96-well tissue culture plates (Nunc, Waltham, Mass., USA) and serum starved overnight. Ligands were prepared in serum-free media. P32 and P59 were pre-incubated with cells for 30 min at 37° C. and 5% CO2, prior to the addition of C5a (5 nM) for 10 min at 37° C. and 5% CO2. Media was then removed and cells lysed with lysis buffer for 10 min on a shaker, 4 μL of lysate was transferred to a white 384-well proxiplate plate (Perkin Elmer) and incubated in the presence of 7 μL of reaction mix. The plate was sealed with TopSeal-A, incubated for 2 h at 37° C. and measured on an M1000Pro plate reader (Tecan, Mannedorf, Switzerland).

C5a1-C5a2 heteromer = biological target: T2, C5a1-C5a2 heteromer (Homo sapiens, UniProt P21730+Q9P296); experiment: BRET ligand-induced heteromer formation between C5a1 and C5a2; format: cell-based; conditions: P32 or P59 100 μM
T2 construct: expressed in transfected cells; host or cells: HEK293 (transient)
Experimental: Assays were performed as a ligand-induced BRET experiment similar to previously described^17, 31, 49. In brief, HEK293 cells were transiently transfected with either C5a1-Rluc8 and β-arrestin 2-Venus or C5a2-Venus and β-arrestin 2-Rluc8 or C5a1-Rluc8 and C5a2-Venus in a 100-mm dish. 24 h after transfection cells were collected and transferred to a 96-well white microplate (Corning, N.Y., USA) in phenol-red free DMEM containing 5% FBS and 25 mM HEPES (Life Technologies). Cells were allowed to settle for 24 h and then were incubated with 30 μM Enduren (Promega, Madison, Wis., USA) for 2 h at 37° C. and 5% CO2 to ensure that the substrate had reached equilibrium. Following incubation BRET baseline measurements were taken for 15 min then ligands were added to plate and BRET measurements were taken for a further 1 h at 37° C. using a POLARstar optima microplate reader (BMG Labtech, Ortenberg, Germany). Filtered light emissions were sequentially measured for 1 s in each of the following windows 460-490 nm and 520-550 nm, both before and following ligand addition. The ligand-induced BRET ratio was calculated by subtracting the ratio of 520-550 nm emission over the 460-490 nm emission for a vehicle-treated sample from a ligand-treated sample of the same aliquot of cells in triplicate. […]

C5a2 [2] = biological target: T3, C5a2 (Homo sapiens, UniProt Q9P296); experiment: DiscoveRx PathHunter β-arrestin 2 recruitment, C5a2; format: cell-based; parameters: purchased DiscoveRx Corporation (Birmingham, UK); conditions: 100 μM, data not shown
Target sequence in this assay (Q9P296 whole entry): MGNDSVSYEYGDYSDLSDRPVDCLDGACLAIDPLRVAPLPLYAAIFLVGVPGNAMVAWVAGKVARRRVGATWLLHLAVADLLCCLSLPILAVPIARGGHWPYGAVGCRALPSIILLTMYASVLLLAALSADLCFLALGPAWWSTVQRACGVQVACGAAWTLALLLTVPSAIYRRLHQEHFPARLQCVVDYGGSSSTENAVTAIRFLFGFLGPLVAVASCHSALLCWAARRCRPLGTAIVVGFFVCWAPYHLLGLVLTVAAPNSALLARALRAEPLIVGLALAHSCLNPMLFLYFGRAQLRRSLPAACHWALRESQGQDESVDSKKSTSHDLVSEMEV

C5a2 [3] = biological target: T3, C5a2; experiment: BRET C5a2-β-arrestin 2 recruitment assay in HEK293 cells; format: cell-based; parameters: expressed in transfected cells; host or cells: HEK293 (transient); conditions: for efficacy for β-arrestin 2 recruitment relative to affinity for C5a2: EC50 versus Ki; for EC50: calculated at ~40 min after ligand addition; for type of activity for recruitment of β-arrestin 2 via C5a2: compared to C5a
Experimental: Assays were performed as a ligand-induced BRET experiment similar to previously described^17, 31, 49. In brief, HEK293 cells were transiently transfected with either C5a1-Rluc8 and β-arrestin 2-Venus or C5a2-Venus and β-arrestin 2-Rluc8 or C5a1-Rluc8 and C5a2-Venus in a 100-mm dish. 24 h after transfection cells were collected and transferred to a 96-well white microplate (Corning, N.Y., USA) in phenol-red free DMEM containing 5% FBS and 25 mM HEPES (Life Technologies). Cells were allowed to settle for 24 h and then were incubated with 30 μM Enduren (Promega, Madison, Wis., USA) for 2 h at 37° C. and 5% CO2 to ensure that the substrate had reached equilibrium. Following incubation BRET baseline measurements were taken for 15 min then ligands were added to plate and BRET measurements were taken for a further 1 h at 37° C. using a POLARstar optima microplate reader (BMG Labtech, Ortenberg, Germany). Filtered light emissions were sequentially measured for 1 s in each of the following windows 460-490 nm and 520-550 nm, both before and following ligand addition. The ligand-induced BRET ratio was calculated by subtracting the ratio of 520-550 nm emission over the 460-490 nm emission for a vehicle-treated sample from a ligand-treated sample of the same aliquot of cells in triplicate. The BRET ratio was calculated by subtracting the ratio of 520-550 nm emission over the 460-490 nm emission for a cell sample containing the C5a1-Rluc8 or β-arrestin 2-Rluc8 construct from a cell sample containing both the C5a1-Rluc8 and β-arrestin 2-Venus or C5a2-Venus and β-arrestin 2-Rluc8 or C5a1-Rluc8 and C5a2-Venus constructs. Peptides were also tested for ligand-induced β-arrestin 2 recruitment at 100 μM using DiscoveRx PathHunter kits for human C5a1 and C5a2 (DiscoveRx Corporation. Birmingham, UK), according to the manufacturer's instructions.
Target sequence in this assay (Q9P296 whole entry): as above
Target sequence in this assay (P32121 whole entry partner): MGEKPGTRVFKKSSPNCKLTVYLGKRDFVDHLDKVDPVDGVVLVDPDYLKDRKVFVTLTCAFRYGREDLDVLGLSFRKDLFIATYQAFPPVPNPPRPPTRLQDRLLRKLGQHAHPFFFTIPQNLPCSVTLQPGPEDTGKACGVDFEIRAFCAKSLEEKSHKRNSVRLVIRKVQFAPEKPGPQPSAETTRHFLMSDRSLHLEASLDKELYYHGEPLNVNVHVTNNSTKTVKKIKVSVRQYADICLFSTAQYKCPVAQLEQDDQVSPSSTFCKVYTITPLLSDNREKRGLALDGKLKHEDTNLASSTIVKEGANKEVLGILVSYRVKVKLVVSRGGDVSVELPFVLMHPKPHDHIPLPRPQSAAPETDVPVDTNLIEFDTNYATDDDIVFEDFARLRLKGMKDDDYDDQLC

T2 sequence (Q9P296 whole entry, one chain of several): as the sequence (Q9P296 whole entry) above

ligand induced β-arrestin 2 recruitment at C5a2 (PathHunter) (C5a2 [2])	C5a2-β-arrestin 2 BRET Recruitment (% of C5a) (C5a2 [3])	efficacy for β-arrestin 2 recruitment relative to affinity for C5a2 (C5a2 [3])	EC50 (C5a2 [3])	type of activity for recruitment of β-arrestin 2 via C5a2 (C5a2 [3])	Substance	activity (agonist or antagonist) at C5a1 (C5a1)	inhibition of C5a-induced ERK1/2 activation in HMDM [1]	direct ERK1/2 activation in HMDM [1]	up-regulation of heteromer formation between C5a1-C5a2 (C5a1-C5a2 heteromer)
showed activity at C5a2	52.9 % of C5a	~6 fold	7.6 ± 0.6 µM	partial agonists	Ac-LIRLWR-OH [Peptide P59, Ac-LIRLWR-OH]	no activity	significantly inhibit	Neither P32 or P59 could induce ERK1/2 activation alone	neither P32 or P59 were able to up-regulate heteromer formation
showed activity at C5a2	28.8 % of C5a	~37 fold	5.9 ± 3.4 µM	partial agonists	Ac-RHYPYWR-OH [Peptide P32, Ac-RHYPYWR-OH]	no activity	significantly inhibit	Neither P32 or P59 could induce ERK1/2 activation alone	neither P32 or P59 were able to up-regulate heteromer formation

Reference: US10280197B2, “Discovery of the first selective C5A receptor 2 (C5L2/C5AR2) ligands” (The Regents of the University of California, priority 2015, dated 2019)
